Target: T1, purified human IDO protein (Homo sapiens, UniProt P14902)
T1 construct: 2 extra amino acids (linker from the BglII cloning site of pQE70); made in house; host or cells: E. coli M15(pREP4) with plasmid pQE70-hIDO
Test: Enzymatic IDO assay (kynurenine production, absorbance at 480 nm)
Format: biochemical
Details: recombinant human IDO; values reported in ranges; read-out: hIDO IC50
Outline: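 Inhibitors (final 1 mM to 5 nM, in 50 mM potassium phosphate) preincubated with enzyme 5 min at 25 °C, then 200 μM L-tryptophan added, 15 min at 37 °C. TCA stop and 60 °C hydrolysis to kynurenine, detected with p-dimethylaminobenzaldehyde at 480 nm. IC50 by nonlinear regression.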

T1 sequence (P14902 whole entry P110S/E119G): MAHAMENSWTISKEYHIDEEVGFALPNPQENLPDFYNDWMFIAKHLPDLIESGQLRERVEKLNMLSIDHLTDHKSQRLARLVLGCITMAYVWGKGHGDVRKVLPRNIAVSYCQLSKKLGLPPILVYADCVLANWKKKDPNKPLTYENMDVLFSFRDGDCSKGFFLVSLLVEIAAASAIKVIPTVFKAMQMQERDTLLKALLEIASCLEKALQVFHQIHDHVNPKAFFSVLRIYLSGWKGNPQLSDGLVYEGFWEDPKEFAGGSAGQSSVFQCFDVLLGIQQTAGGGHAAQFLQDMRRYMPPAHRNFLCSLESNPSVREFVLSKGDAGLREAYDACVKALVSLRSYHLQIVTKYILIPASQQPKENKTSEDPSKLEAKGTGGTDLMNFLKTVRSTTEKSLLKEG

`c1ccc(-c2c[nH]cn2)c(OCc2cscn2)c1` [compound 1289, 4-((2-(1H-imidazol-4-yl)phenoxy)methyl) thiazole] was tested, and the IC50 was 10 to 100 µM.

Work on `Fc1ccc(OCCc2ccccc2)c(-c2cnc[nH]2)c1` [compound 1292, 5-(5-fluoro-2-phenethoxyphenyl)-1H-imidazole] yielded an IC50 of 10 to 100 µM.

With `O=C(CC1CCOCC1)Nc1ccc(CCOc2ccccc2-c2c[nH]cn2)c(F)c1` [compound 1295, N-(4-(2-(2-(1H-imidazol-4-yl)phenoxy)ethyl)-3-fluorophenyl)-2-(tetrahydro-2H-pyran-4-yl)acetamide] the IC50 was < 1 µM.

In the case of `Fc1cccc(-c2c[nH]cn2)c1OCCc1ccccc1Cl` [compound 1296, 4-(2-(2-chlorophenethoxy)-3-fluorophenyl)-1H-imidazole], the IC50 is reported as 10 to 100 µM.

Compound `O=C(CC1CCOCC1)Nc1ccc(CCOc2ccccc2-c2c[nH]cn2)cc1Cl` [compound 1297, N-(4-(2-(2-(1H-imidazol-4-yl)phenoxy)ethyl)-2-chlorophenyl)-2-(tetrahydro-2H-pyran-4-yl)acetamide] has an IC50 of 10 to 100 µM.

Compound `O=C(CC1CCOCC1)Nc1ccc(Cl)c(CCOc2ccccc2-c2c[nH]cn2)c1` [compound 1298, N-(3-(2-(2-(1H-imidazol-4-yl)phenoxy)ethyl)-4-chlorophenyl)-2-(tetrahydro-2H-pyran-4-yl)acetamide] has an IC50 of 10 to 100 µM.

In the case of `O=C(CC1CCOCC1)Nc1ccc(CCOc2ccccc2-c2c[nH]cn2)c(C(F)(F)F)c1` [compound 1305, N-(4-(2-(2-(1H-imidazol-4-yl)phenoxy)ethyl)-3-(trifluoromethyl)phenyl)-2-(tetrahydro-2H-pyran-4-yl)acetamide], the IC50 is reported as < 1 µM.

In the case of `O=C(O)c1ccccc1CCOc1ccccc1-c1c[nH]cn1` [compound 1325, 2-(2-(2-(1H-imidazol-4-yl)phenoxy)ethyl) benzoic acid], the IC50 is reported as > 100 µM.

`CNC(=O)c1ccccc1CCOc1ccccc1-c1c[nH]cn1` [compound 1332, 2-(2-(2-(1H-imidazol-4-yl)phenoxy)ethyl)-N-methylbenzamide] was tested, and the IC50 was > 100 µM.

With `NC(C(=O)Nc1ccc(CCOc2ccccc2-c2c[nH]cn2)c(Cl)c1)C1CCOCC1` (centres unmarked) [compound 1333, N-(4-(2-(2-(1H-imidazol-4-yl)phenoxy)ethyl)-3-chlorophenyl)-2-amino-2-(tetrahydro-2H-pyran-4-yl)acetamide] the IC50 was < 1 µM.

With `CC(=O)NC(C(=O)Nc1ccc(CCOc2ccccc2-c2c[nH]cn2)c(Cl)c1)C1CCOCC1` (centres unmarked) [compound 1337, N-(4-(2-(2-(1H-imidazol-4-yl)phenoxy)ethyl)-3-chlorophenyl)-2-acetamido-2-(tetrahydro-2H-pyran-4-yl)acetamide] the IC50 was < 1 µM.

With `O=C(Nc1ccc(CCOc2ccccc2-c2c[nH]cn2)c(Cl)c1)C1CCCCN1` (centres unmarked) [compound 1344, N-(4-(2-(2-(1H-imidazol-4-yl)phenoxy)ethyl)-3-chlorophenyl)piperidine-2-carboxamide] the IC50 was 1 to 10 µM.

`Nc1ncccc1C(=O)Nc1ccc(CCOc2ccccc2-c2c[nH]cn2)c(Cl)c1` [compound 1345, N-(4-(2-(2-(1H-imidazol-4-yl)phenoxy)ethyl)-3-chlorophenyl)-2-aminonicotinamide] was tested, and the IC50 was < 1 µM.

`O=C(Nc1cccc(OC2CCOC2)c1)Nc1ccc(CCOc2ccccc2-c2c[nH]cn2)c(Cl)c1` (centres unmarked) [compound 1346, 1-(4-(2-(2-(1H-imidazol-4-yl)phenoxy)ethyl)-3-chlorophenyl)-3-(3-(tetrahydrofuran-3-yloxy)phenyl)urea] showed an IC50 of 1 to 10 µM.

With `O=C(Nc1ccccc1)Nc1ccc(CCOc2ccccc2-c2c[nH]cn2)c(Cl)c1` [compound 1347, 1-(4-(2-(2-(1H-imidazol-4-yl)phenoxy)ethyl)-3-chlorophenyl)-3-phenylurea] the IC50 was < 1 µM.

For `O=C(COc1ccccc1-c1c[nH]cn1)C1CCCCC1` [compound 1354, 2-(2-(1H-imidazol-4-yl)phenoxy)-1-cyclohex-ylethanone], the IC50 was 1 to 10 µM.

In the case of `O=C(Cc1cncnc1)Nc1ccc(CCOc2ccccc2-c2c[nH]cn2)c(Cl)c1` [compound 1366, N-(4-(2-(2-(1H-imidazol-4-yl)phenoxy)ethyl)-3-chlorophenyl)-2-(pyrimidin-5-yl)acetamide], the IC50 is reported as < 1 µM.

From patent publication US8722720B2, “Imidazole derivatives as IDO inhibitors” (NewLink Genetics Corporation, priority 2010, dated 2014)
